According to ChEMBL document CHEMBL1201862, “PubChem BioAssay data set” (2004):
The source made the active and inactive calls.

Assays:
[1] = growth inhibition of yeast DHODH-expressing 3D7 parasites – SYBR Green, dry powder samples, dose response (AID 1159570); type: functional, cell-based;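 also: parasite growth measured after 72 hours of compound exposure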
[2] = Dd2 malaria parasite growth inhibition potency – SYBR Green, dry powder samples, dose response (AID 1159566); type: functional, cell-based;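 also: potency for growth inhibition with lower SYBR green DNA signal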
[3] = P. falciparum Dd2 growth inhibitors, dose response, SYBR Green, cherry-picked samples (AID 1159567); type: functional, cell-based
[4] = growth inhibition of PfATP4-mutant resistant parasites – NITD609-resistant line, SYBR Green, dry powder, dose response (AID 1159571); type: functional, cell-based;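 also: parasites synchronized at ring stage by sorbitol before testing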
[5] = toxicity to human HepG2 hepatoma cells – cell-based, plate reader, dry powder samples, cytotoxicity control, dose response (AID 1159569); type: functional;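 also: inhibitor potency with signal falling toward the positive control level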
[6] = toxicity to human hepatoma HepG2 cells – cell-based, cherry-picked samples, cytotoxicity control, dose response (AID 1159577); type: functional
[7] = rise of 4N DNA cells, HeLa – IC50, dose response (AID 1117351); type: functional, cell-based
[8] = rise of 2N DNA cells, HeLa – IC50, dose response (AID 1117349); type: functional, cell-based
[9] = cytotoxicity toward HT-29 cells – cell-based, CellTiter-Glo luminescence, IC50, dose response (AID 1117330); type: functional
[10] = HCT116 cell viability decrease, GSK3B pretreatment – CellTiter-Glo, IC50, dose response (AID 1117339); type: functional; details: HCT-116
[11] = RKO cell viability reduction, dose response, CellTiter-Glo luminescence (AID 1117322); type: functional
[12] = cytotoxicity toward HCT116 cells – cell-based, CellTiter-Glo luminescence, IC50, dose response (AID 1117332); type: functional; details: HCT-116
[13] = cytotoxicity toward Colo320 cells – cell-based, CellTiter-Glo luminescence, IC50, dose response (AID 1117334); type: functional; details: COLO 320
[14] = target: T1, Zinc finger protein mex-5 (Caenorhabditis elegans, UniProt Q9XUB2); experiment: potency of MEX-5 RNA-binding blockers – biochemical, C. elegans, fluorescence polarization, dose response (AID 1960)
T1 sequence (Q9XUB2 whole entry): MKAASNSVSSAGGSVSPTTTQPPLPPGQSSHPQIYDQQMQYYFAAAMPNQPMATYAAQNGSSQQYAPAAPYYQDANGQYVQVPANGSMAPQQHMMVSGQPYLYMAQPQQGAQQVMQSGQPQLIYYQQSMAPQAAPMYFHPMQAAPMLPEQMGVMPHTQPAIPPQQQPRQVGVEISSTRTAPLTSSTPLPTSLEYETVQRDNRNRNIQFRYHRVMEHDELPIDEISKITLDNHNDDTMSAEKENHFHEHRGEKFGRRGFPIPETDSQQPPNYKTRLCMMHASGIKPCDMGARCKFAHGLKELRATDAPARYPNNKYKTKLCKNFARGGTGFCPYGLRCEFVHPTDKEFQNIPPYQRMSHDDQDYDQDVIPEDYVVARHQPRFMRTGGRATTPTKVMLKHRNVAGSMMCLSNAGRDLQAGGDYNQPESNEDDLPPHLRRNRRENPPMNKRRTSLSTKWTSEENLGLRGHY

cells = details: A549
[15] = target: T2, RNA-binding protein pos-1 (Caenorhabditis elegans, UniProt G5EF15); experiment: disruptors of C. elegans POS-1 RNA interaction – biochemical, fluorescence polarization, dose response (AID 1964);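 also: purified POS-1 fused to maltose binding protein made in E. coli; potency of compounds blocking POS-1 binding to fluorescent RNA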
T2 sequence (G5EF15 whole entry): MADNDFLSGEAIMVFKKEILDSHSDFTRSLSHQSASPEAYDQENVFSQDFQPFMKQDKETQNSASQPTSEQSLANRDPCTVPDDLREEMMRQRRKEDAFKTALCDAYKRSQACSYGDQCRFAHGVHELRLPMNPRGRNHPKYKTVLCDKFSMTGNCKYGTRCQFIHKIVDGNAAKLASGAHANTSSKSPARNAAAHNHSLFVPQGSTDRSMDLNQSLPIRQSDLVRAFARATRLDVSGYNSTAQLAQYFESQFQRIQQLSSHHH

[16] = target: Disintegrin and metalloproteinase domain-containing protein 17 (Homo sapiens, UniProt P78536); experiment: inhibition of ADAM17 substrate cleavage – biochemical, quenched FRET substrate, counter-screen for ADAM10 exosite inhibitor project, dose response (AID 743253)
[17] = target: 1-phosphatidylinositol 4,5-bisphosphate phosphodiesterase gamma-1 (Homo sapiens, UniProt P19174); experiment: Counterscreen for inhibitors of phospholipase C isozymes (PLC-B3): Fluorescence-based biochemical high throughput dose response assay to identify inhibitors of phospholipase C isozymes (PLC-gamma1).
[18] = target: 1-phosphatidylinositol 4,5-bisphosphate phosphodiesterase beta-3 (Homo sapiens, UniProt Q01970); experiment: Fluorescence-based biochemical high throughput dose response assay to identify inhibitors of phospholipase C isozymes (PLC-B3).
[19] = potency of ADAM10 substrate cleavage blockers – biochemical, QFRET, dose response (AID 743254);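 also: ADAM10 enzyme with the DM2 quenched FRET peptide as substrate; EDANS fluorescence gain as the protease cuts the substrate; inhibitor potency against ADAM10 proteolytic activity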
[20] = target: NAD-dependent protein deacylase sirtuin-5, mitochondrial (Homo sapiens, UniProt Q9NXA8); experiment: sirtuin-5 deacylation blockers, concentration series – biochemical, fluorescence imaging, cherry-pick, set 5, dose response (AID 720591);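 also: desuccinylation of succinyl peptide AMC substrate read as fluorescence after trypsin release; potency of inhibitors that lower fluorescence and may act on trypsin instead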
[21] = HIV-1 AD8 envelope cell-cell fusion blockers – cherry-pick, dose response (AID 652062); type: functional, cell-based;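 also: luciferase signal from cell-cell fusion driven by HIV-1 clade B AD8 Env; potency is for inhibitors of fusion seen as a drop in luminescence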
[22] = target: COUP transcription factor 2 (Homo sapiens, UniProt P24468); experiment: Luminescence-based cell-based high throughput dose response assay to identify inhibitors of COUP-TFII (NR2F2).; type: functional;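 also: HEK293 cells transiently cotransfected with COUP-TFII expression vector and reporter; luciferase reporter luminescence driven by COUP-TFII from the pX2-168 reporter plasmid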
[23] = loss of viability in HepG2 cells – cell-based, CellTiter-Glo, cherry-picked, cytotoxicity control for Shn3 inhibitor project, dose response (AID 624134); type: functional
HEK293 = experiment: EBV LMP1 TES2 canonical NF-kB signalling blockers – cell-based, HEK293, luciferase, cherry-pick, dose response (AID 588343); type: functional; details: Homo sapiens
[24] = non-specific 3'UTR reporter inhibition in Clone20-Shn3RL – cell-based, Renilla luciferase, cherry-picked, counter-screen for Shn3 inhibitor project, dose response (AID 624133); type: functional
[25] = off-target signal loss in HeLa-CEM21 co-culture – HeLa F-luc CTL cells, cherry-picked, counter-screen for HIV-1 Env fusion inhibitor project, dose response (AID 652040); type: functional, cell-based;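 also: potency for signal decrease marking cytotoxic or nonspecific inhibition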
[26] = blockers of HIV-1 envelope-mediated cell-cell fusion – cherry-pick, dose response (AID 652057); type: functional, cell-based
[27] = reduction of Shn3 3'UTR-driven luciferase in osteoblasts – cell-based, Clone20 osteoblasts, firefly luciferase, cherry-picked, dose response (AID 624132); type: functional;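 also: firefly luciferase luminescence from reporter carrying the Shn3 3'UTR in osteoblasts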
[28] = blockers of HIV-1 ZM109 envelope-driven cell-cell fusion – HeLa effector, CEM target cells, luciferase, cherry-pick, dose response (AID 652058); type: functional, cell-based;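 also: luciferase signal from HIV-1 Env mediated cell-cell fusion of effector and target cells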
[29] = blockade of melanocortin 4 receptor signaling – cell-based, plate reader, cherry pick, counter-screen for LGR2 antagonist project, dose response (AID 743444); type: functional;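 also: transfected HEK 293 cells stimulated with alpha-MSH peptide; potency of inhibitors of the alpha-MSH evoked signal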
[30] = blockers of bursicon-stimulated LGR2 cAMP reporter – cell-based, HEK293, CRE-luciferase reporter, cherry pick, set 2, dose response (AID 743343); type: functional;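 also: transfected cells were stimulated with diluted bursicon conditioned medium after compound addition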
[31] = target: T3, Microphthalmia-associated transcription factor (Homo sapiens, UniProt O75030); experiment: reducers of TRPM1 reporter luminescence, concentration series – cell-based, SK-MEL-5, cherry-picked, set 3, MITF inhibitor project, dose response (AID 493073); type: functional;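 also: SK-MEL-5 melanoma cells with luciferase driven by the MITF target TRPM1 promoter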
T3 sequence (O75030 whole entry): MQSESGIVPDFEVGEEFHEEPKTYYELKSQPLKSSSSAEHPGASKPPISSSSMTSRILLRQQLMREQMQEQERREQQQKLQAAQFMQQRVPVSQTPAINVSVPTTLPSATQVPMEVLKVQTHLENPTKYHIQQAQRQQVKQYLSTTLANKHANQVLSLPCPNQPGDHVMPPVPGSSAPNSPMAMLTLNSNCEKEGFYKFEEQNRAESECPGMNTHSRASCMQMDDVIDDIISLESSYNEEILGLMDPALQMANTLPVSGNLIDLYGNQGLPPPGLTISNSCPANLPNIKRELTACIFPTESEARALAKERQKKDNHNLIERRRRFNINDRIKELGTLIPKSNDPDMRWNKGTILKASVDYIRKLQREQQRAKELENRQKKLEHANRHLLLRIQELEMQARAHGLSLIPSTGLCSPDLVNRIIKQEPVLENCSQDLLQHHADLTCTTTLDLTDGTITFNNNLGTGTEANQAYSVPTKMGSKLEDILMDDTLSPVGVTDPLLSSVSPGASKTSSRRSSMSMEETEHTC

[32] = HEK-293T viability loss after treatment – luminescence, T-cell screen hits, cytotoxicity control for TCR NF-kB inhibitor project, dose response (AID 489026); type: functional, cell-based;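 also: cells exposed to compound about 14 hours before the viability readout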

Disintegrin and metalloproteinase domain-containing protein 17, sequence (P78536 whole entry, the tested form may be a part): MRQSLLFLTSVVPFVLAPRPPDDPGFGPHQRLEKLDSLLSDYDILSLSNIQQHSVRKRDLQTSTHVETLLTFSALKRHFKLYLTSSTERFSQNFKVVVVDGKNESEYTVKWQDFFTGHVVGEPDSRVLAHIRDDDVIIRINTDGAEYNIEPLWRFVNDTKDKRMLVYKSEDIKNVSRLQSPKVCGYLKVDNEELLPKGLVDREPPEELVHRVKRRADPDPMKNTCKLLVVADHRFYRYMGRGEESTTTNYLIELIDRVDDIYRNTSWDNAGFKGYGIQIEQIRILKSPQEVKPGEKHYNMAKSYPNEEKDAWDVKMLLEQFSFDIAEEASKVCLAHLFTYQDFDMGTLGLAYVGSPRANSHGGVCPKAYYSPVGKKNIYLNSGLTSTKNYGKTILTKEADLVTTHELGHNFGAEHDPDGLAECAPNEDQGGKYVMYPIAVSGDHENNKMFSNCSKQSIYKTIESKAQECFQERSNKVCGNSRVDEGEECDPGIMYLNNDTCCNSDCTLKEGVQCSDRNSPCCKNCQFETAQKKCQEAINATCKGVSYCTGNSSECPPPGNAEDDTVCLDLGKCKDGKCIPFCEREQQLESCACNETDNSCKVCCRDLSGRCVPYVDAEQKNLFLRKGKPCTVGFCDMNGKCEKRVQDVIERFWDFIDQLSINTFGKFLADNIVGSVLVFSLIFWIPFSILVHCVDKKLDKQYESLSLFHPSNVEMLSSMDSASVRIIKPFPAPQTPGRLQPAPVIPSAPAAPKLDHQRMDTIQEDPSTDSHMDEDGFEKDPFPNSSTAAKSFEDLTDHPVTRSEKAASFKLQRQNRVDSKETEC
1-phosphatidylinositol 4,5-bisphosphate phosphodiesterase beta-3, sequence (Q01970 whole entry): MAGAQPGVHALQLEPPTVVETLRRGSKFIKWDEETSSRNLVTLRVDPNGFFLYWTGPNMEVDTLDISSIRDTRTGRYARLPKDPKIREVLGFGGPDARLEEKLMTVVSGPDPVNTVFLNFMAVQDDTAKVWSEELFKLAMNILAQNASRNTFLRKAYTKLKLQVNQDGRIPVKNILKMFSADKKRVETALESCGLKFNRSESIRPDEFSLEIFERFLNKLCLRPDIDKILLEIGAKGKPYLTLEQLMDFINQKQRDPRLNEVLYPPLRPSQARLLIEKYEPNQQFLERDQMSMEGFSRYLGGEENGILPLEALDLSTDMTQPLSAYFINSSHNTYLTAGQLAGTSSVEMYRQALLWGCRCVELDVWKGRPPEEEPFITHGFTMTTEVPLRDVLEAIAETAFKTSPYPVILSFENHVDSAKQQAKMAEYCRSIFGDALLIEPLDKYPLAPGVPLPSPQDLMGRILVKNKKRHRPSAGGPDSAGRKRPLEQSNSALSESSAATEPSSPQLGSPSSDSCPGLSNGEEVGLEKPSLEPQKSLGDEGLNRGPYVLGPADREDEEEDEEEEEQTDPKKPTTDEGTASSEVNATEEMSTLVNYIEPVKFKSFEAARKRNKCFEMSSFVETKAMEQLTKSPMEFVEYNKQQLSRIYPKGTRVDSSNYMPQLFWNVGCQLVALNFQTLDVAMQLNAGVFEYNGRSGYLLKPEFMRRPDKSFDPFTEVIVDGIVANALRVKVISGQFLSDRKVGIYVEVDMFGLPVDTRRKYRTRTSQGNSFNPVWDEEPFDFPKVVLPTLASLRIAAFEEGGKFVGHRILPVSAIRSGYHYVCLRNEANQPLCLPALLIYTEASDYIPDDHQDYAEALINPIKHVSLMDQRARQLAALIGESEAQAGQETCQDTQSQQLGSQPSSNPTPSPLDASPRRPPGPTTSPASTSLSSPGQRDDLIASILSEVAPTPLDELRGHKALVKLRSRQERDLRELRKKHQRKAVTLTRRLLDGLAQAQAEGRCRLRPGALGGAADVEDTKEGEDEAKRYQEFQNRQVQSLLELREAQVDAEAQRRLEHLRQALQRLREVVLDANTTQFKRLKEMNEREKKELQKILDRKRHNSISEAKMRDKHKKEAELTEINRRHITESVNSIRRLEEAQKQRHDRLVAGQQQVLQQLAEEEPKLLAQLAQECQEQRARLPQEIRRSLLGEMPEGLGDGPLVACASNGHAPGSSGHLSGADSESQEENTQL
COUP transcription factor 2, sequence (P24468 whole entry): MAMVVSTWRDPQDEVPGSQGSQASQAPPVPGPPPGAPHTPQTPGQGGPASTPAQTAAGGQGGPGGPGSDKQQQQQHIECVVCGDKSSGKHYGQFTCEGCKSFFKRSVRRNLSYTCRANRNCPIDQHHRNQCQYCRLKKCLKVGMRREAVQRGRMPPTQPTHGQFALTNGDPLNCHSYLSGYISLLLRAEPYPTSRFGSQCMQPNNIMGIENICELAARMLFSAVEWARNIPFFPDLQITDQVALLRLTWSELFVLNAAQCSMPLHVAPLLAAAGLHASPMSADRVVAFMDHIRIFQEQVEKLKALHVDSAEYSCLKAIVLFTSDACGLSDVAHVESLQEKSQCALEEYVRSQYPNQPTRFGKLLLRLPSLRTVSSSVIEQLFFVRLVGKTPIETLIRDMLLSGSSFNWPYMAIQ
NAD-dependent protein deacylase sirtuin-5, mitochondrial, sequence (Q9NXA8 whole entry, the tested form may be a part): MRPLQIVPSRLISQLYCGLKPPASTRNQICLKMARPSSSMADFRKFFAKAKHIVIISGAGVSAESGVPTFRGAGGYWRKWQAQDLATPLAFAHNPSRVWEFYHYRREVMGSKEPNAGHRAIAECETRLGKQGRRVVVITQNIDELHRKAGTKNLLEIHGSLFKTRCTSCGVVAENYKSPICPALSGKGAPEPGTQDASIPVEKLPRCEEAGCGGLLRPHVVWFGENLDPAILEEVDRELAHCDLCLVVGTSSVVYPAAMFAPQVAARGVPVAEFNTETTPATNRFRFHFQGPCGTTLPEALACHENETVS
1-phosphatidylinositol 4,5-bisphosphate phosphodiesterase gamma-1, sequence (P19174 whole entry): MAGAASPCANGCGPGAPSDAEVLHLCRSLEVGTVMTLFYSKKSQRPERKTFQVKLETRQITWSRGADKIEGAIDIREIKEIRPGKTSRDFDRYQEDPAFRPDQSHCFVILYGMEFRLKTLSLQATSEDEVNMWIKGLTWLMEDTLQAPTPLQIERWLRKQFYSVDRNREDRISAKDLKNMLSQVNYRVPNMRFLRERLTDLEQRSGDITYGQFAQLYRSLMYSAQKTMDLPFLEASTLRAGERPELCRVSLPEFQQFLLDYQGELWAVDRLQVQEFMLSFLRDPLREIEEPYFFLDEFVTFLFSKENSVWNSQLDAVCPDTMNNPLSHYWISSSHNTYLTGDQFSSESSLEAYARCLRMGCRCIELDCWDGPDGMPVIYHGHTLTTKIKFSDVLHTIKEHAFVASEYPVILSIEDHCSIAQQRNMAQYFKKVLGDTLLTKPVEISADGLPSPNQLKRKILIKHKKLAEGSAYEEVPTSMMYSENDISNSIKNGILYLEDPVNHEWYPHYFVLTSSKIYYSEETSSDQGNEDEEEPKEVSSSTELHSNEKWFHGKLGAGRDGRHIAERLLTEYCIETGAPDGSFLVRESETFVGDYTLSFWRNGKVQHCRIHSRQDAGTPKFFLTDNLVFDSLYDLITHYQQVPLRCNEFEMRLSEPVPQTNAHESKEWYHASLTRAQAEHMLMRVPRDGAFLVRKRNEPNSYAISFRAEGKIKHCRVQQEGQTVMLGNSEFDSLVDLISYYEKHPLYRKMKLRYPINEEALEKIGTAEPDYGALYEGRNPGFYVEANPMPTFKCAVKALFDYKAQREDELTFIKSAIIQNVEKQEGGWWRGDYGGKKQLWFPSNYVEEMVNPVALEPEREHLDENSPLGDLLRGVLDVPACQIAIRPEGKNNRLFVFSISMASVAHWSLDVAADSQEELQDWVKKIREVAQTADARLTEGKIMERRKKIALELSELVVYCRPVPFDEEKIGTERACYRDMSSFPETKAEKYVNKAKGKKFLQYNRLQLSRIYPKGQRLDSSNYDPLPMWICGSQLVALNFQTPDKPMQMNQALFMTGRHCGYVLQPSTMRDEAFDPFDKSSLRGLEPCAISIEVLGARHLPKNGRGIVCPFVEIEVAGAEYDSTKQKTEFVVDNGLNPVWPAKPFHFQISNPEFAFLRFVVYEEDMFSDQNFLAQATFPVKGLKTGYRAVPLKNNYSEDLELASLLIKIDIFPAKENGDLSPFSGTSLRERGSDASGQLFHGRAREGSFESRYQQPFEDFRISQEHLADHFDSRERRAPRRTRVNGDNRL

OC[C@@H]1Nc2ccc(-c3cccc(F)c3)cc2[C@@H]2[C@H]1CCN2Cc1ccncc1
AC50 [1]: 2.02 µM (active) | AC50 [2]: 0.638 µM (active) | AC50 [3]: 1.27 µM (active) | AC50 [4]: 0.814 µM (active) | AC50 [5]: 29.5 µM (active) | AC50 [6]: 27.6 µM (active)

COc1cccc2c1C(=O)c1c(O)c3c(c(O)c1C2=O)C[C@@](O)(C(=O)CO)C[C@@H]3O[C@H]1C[C@H](N)[C@H](O[C@@H]2CCCCO2)[C@H](C)O1 [PIRARUBICIN]
IC50 [7]: 0.0806 µM (active) | IC50 [8]: 0.0795 µM (active) | IC50 [9]: > 20 µM (inactive) | IC50 [10]: 1.28 µM (active) | IC50 [11]: 1.01 µM (active) | IC50 [12]: 0.911 µM (active) | IC50 [13]: 2.01 µM (active)

O=C1c2ccccc2S(=O)(=O)c2cc(N3CCC(C(=O)N4CCCCC4)CC3)ccc21
EC50 [14]: > 300 µM (not active) | AC50 (cells): > 52 µM (inactive) | EC50 [15]: > 300 µM (not active)

CN1C(=O)c2cc(NS(=O)(=O)c3ccc(F)cc3)ccc2OC[C@H]2O[C@@H](CC(=O)NCC(F)(F)F)CC[C@@H]21
IC50 [16]: > 69.6 µM (inactive) | IC50 [17]: 45.1 µM (inactive) | IC50 [18]: 47.2 µM (inactive) | IC50 [19]: > 69.6 µM (inactive)

CC(C)C[C@H](NC(=O)C1CCN(C(=O)[C@H](Cc2ccccc2)NC(=O)OC(C)(C)C)CC1)C(=O)O
AC50 [20]: > 30 µM (inactive)

COc1ccc(CNc2ncnc3ccccc23)cc1
AC50 [21]: 5.24 µM (active) | IC50 [22]: 10.7 µM (inactive) | AC50 [23]: 3.67 µM (active) | AC50 (HEK293): 33.1 µM (active) | AC50 [24]: 5.4 µM (active) | AC50 [25]: > 70 µM (inactive) | AC50 [26]: 36.2 µM (active) | AC50 [27]: 0.674 µM (active) | AC50 [28]: 24.9 µM (active)

C[C@@H]1CN([C@@H](C)CO)C(=O)c2c(c3ccccc3n2C)-c2ccccc2CO[C@@H]1CN(C)C(=O)Nc1cccc(Cl)c1Cl
AC50 [1]: 1.62 µM (active) | AC50 [2]: 0.85 µM (active) | AC50 [3]: 1.52 µM (active) | AC50 [4]: 0.572 µM (active) | AC50 [5]: 23.5 µM (active)

CCn1c(C)cc(C(=O)CN2C(=O)c3ccccc3S2(=O)=O)c1C
AC50 [29]: 1.16 µM (active) | AC50 [21]: 0.358 µM (active) | AC50 [25]: 4.71 µM (active) | AC50 [26]: 2.09 µM (active) | AC50 [30]: 1.46 µM (active) | AC50 [31]: 1.99 µM (active) | IC50 [32]: > 80 µM (inactive) | AC50 [28]: 7.25 µM (active)
